Laboratory results as given in PubChem BioAssay (NCI).
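Briefly, cells in 96-well plates were exposed to five compound concentrations for 48 h, and endpoints were estimated by linear interpolation. GI50 = concentration required for 50% inhibition of growth. TGI denotes the concentration required for complete inhibition of growth.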

Tests used:
Test in all cases: NCI tumour cell line growth inhibition, 48 h
EKVX NSCLC = tested on: EKVX NSCLC
A498 renal = tested on: A498 renal
RXF 393 renal = tested on: RXF 393 renal
HOP-92 NSCLC = tested on: HOP-92 NSCLC
OVCAR-4 ovarian = tested on: OVCAR-4 ovarian
UACC-62 melanoma = tested on: UACC-62 melanoma
NCI-H460 lung = tested on: NCI-H460 lung
RPMI-8226 leukemia = tested on: RPMI-8226 leukemia
COLO 205 colon = tested on: COLO 205 colon
HS 578T breast = tested on: HS 578T breast

SMILES	TGI (EKVX NSCLC) [µM]	TGI (A498 renal) [µM]	TGI (RXF 393 renal) [µM]	TGI (HOP-92 NSCLC) [µM]	TGI (OVCAR-4 ovarian) [µM]	TGI (UACC-62 melanoma) [µM]	TGI (NCI-H460 lung) [µM]	TGI (RPMI-8226 leukemia) [µM]	TGI (COLO 205 colon) [µM]	GI50 (EKVX NSCLC) [µM]	GI50 (RXF 393 renal) [µM]	GI50 (HOP-92 NSCLC) [µM]	GI50 (HS 578T breast) [µM]	TGI (HS 578T breast) [µM]	GI50 (OVCAR-4 ovarian) [µM]	GI50 (UACC-62 melanoma) [µM]	GI50 (NCI-H460 lung) [µM]	GI50 (RPMI-8226 leukemia) [µM]	GI50 (COLO 205 colon) [µM]	GI50 (A498 renal) [µM]
NC(=O)c1ncn(C2OC(CO)C(O)C2O)c1O (centres undefined)	> 100	> 100	> 100	> 100	> 100	> 100	> 100	> 100												
Cc1[nH]c2cc([N+](=O)[O-])ccc2c1[N+](=O)[O-]	49.6	50.4	54.1	23.8	92		70.3	58.4	33											
COC(=O)c1cc2cc(/C=C3/SC(=S)N(N(C(C)=O)C(C)=O)C3=O)oc2n1Cc1ccccc1	> 100		56.7	> 100	> 100	33	> 100	> 100	> 100	31	22	44	24.2	76.6	38.2	14.4	19.3	29.4	77.6	
Cc1ccc(S(=O)(=O)C2CC2(Cl)Cl)cc1 (centres undefined)	> 100		29.1	47.8	13.8	60.4	> 100		41.9											
O=C(C(=CN1CCN(C(=O)c2ccco2)C1=S)C(=O)c1ccccc1)c1ccccc1	21.4		14.8	> 50	42.8	18.3	11.6	> 50	> 50	8.06	5.84	27			16.1	6.93	2.35	8.41	20	
O=C1Cc2cc(CCN3CCNCC3)c(Cl)cc2N1	> 100	> 100	> 100		> 100	> 100	> 100	> 100	> 100	0.358	6.89		1.57	> 100	87.8	6.54	22.9	6.03	19.7	2.85
CN(CCCCCl)P(=O)(OCc1ccc([N+](=O)[O-])o1)OCC1OC(n2cc([N+](=O)[O-])c(=O)[nH]c2=O)CC1O (centres undefined)	> 100	> 100	> 100		84.8	> 100	> 100	> 100	> 100	> 100	> 100		> 100	> 100	9.75	49.2	3.01	> 100	44	29.6
CCCCOC(=O)NC(=O)c1cn(CCCOC(=O)CCCCCCCCC(=O)OCCCn2cc(C(=O)NC(=O)OCCCC)c(=O)n(C)c2=O)c(=O)n(C)c1=O	> 100	> 100	> 100	> 100	> 100	> 100	> 100	> 100	> 100											
COC(=O)[C@@]12C3=NO[C@]1(C(=O)OC)C(O[Si](C)(C)C(C)(C)C)[C@@H](OC(C)=O)[C@@H](OC(C)=O)[C@@H]2[C@@H](OCc1ccccc1)CC3 (some centres undefined)	> 100	> 100	89.6	> 26.1	> 100	> 100	> 100	> 100	> 100											
O=C(Oc1c(Cl)cc(Cl)cc1Cl)c1ccccc1Nc1ccnc(C(F)(F)F)c1	13		> 100	> 100		6.06	> 100		> 100	3.31	9.47	> 100				1.74	3.38		6.24	
COc1ccc(/C=C/c2ccnc3ccccc23)cc1OC	27.9	23.6	27.2		24.8	29.4	28.5	57.1	27.1					81.6						
CC(=O)C1C(=O)C(=O)N(CCN2C(=O)C(=O)C(C(C)=O)C2=O)C1=O (centres undefined)	> 100	> 100	> 100	> 100	> 100	> 100	> 100	> 100	> 100											
C=CCSC(C)=O	> 100	> 100			> 100	> 100	> 100	> 100	> 100					> 100						
Cc1c(C(N)=O)sc2nc(C)n(/N=c3\scc(-c4ccccc4)n3Cc3ccccc3)c(=O)c12		8.97		5.33	> 100	83.2	7.34	> 100	7.32			1.34	3.85	> 100	2.5	4.26	2.65	13.9	2.39	2.53
CCc1c(C)c2cc(-n3c(-c4ccc(OC)cc4)csc3=N)c(O)c(C)c2oc1=O	11.1	8.72	6.7	7.76	4.43	2.94	10.6		4.88	1.24	1.74	1.88	2.1	> 100	1.52	1	2.25		1.94	1.94
N#CC1=C(N)OC2=C(CCOc3c2ccc2ccccc32)C1c1ccc(Br)cc1 (centres undefined)	> 100		80.9	47.4	> 100	> 100	> 100	40.8	> 100	> 100	22.8	14.1			27.1	48.1	28.4	13.5	29	
Cc1ccc(Nc2nc(-c3ccc(-c4ccc([N+](=O)[O-])cc4)o3)cs2)cc1				> 100	> 100	> 100	> 100	> 100	> 100											
Cc1cc(Br)ccc1N=Nc1c(C)nn(-c2ccccc2)c1-c1ccccc1	> 100	> 100	> 100	> 100	> 100	> 100	> 100	> 100	> 100											
CCC(=O)Nc1nnc(Cc2ccc(OC)c(OC)c2)s1		> 100		> 100	> 100	> 100	> 100	> 100	> 100			78.7	> 100	> 100	> 100	> 100	> 100	> 100	> 100	> 100

SMILES	TGI (EKVX NSCLC) [µM]	TGI (A498 renal) [µM]	TGI (RXF 393 renal) [µM]	TGI (HOP-92 NSCLC) [µM]	TGI (OVCAR-4 ovarian) [µM]	TGI (UACC-62 melanoma) [µM]	TGI (NCI-H460 lung) [µM]	TGI (RPMI-8226 leukemia) [µM]	TGI (COLO 205 colon) [µM]	GI50 (EKVX NSCLC) [µM]	GI50 (RXF 393 renal) [µM]	GI50 (HOP-92 NSCLC) [µM]	GI50 (HS 578T breast) [µM]	TGI (HS 578T breast) [µM]	GI50 (OVCAR-4 ovarian) [µM]	GI50 (UACC-62 melanoma) [µM]	GI50 (NCI-H460 lung) [µM]	GI50 (RPMI-8226 leukemia) [µM]	GI50 (COLO 205 colon) [µM]	GI50 (A498 renal) [µM]
O=C1[C@@H]2C(c3ccccc3[N+](=O)[O-])=NO[C@@H]2C(=O)N1c1ccc(Cc2ccc(N3C(=O)[C@H]4C(c5ccccc5[N+](=O)[O-])=NO[C@H]4C3=O)cc2)cc1	> 100	> 100	> 100	> 100	> 100	> 100	> 100	> 100	> 100											
COc1ccc2nc3ccccc3c(NCCCCN(CCCl)CCCl)c2c1		4.21	0.289		0.542	1.42	0.69	0.943						> 22.1						
CC(=O)CC(=O)Nc1ccccc1C(F)(F)F	> 100	> 100	> 100	> 100	> 100	> 100	> 100	> 100	> 100											
CN(C)N=Nc1ccc(S(N)(=O)=O)cc1	> 100	> 100		> 100	> 100	> 100	> 100	> 100	> 100											
COc1ccc(C(=O)C(C(=O)C(=O)NCCCNC(=O)C(=O)C(C(=O)c2ccc(OC)cc2)c2ccc(OC)cc2)c2ccc(OC)cc2)cc1 (centres undefined)	> 100			> 100	> 100	> 100	> 100	> 100	> 100											
O=C(N/C(=C\c1ccc(/C=C(\NC(=O)c2ccccc2)c2nc3c(O)nc(S)nc3[nH]2)cc1)c1nc2c(O)nc(S)nc2[nH]1)c1ccccc1	> 100	> 100	> 100	> 100	> 100	> 100	> 100	> 100	> 100											
Oc1[nH]c2ccccc2c1C=Nc1ccc(-n2cncn2)cc1	> 25	> 25	> 25		> 25	> 25	> 25	> 25	> 25	> 25	> 14.5		> 25	> 25	> 18.9	14.6	> 23	18.3	> 25	> 16.7
CCN(CC)C(=S)SS(C)(=O)=O	75.8		23.4	54.2	34.7	30			29.7											
S=C(SSC(=S)N1CCCCC1)N1CCCCC1	> 100		35.8	> 100	48.9	49.1	41.5	40.2	24.1	28.4	14.2	30.7	21	> 100	9.65	16	10.9	12.9	11.8	
CC1=C2C=CC(=O)C[C@@]2(C)CCC1	> 100	> 100	> 100	> 100	> 100	> 100	> 100	> 100	> 100											
CC1=C(C(=O)Nc2ccc(Cl)c(Cl)c2)C(c2cccc(Cl)c2)NC(=S)N1 (centres undefined)	28.8		23.6	> 50	42.5	18.1	> 50	> 50	> 50	12.2	9.63	14.2			13.4	8.1	24.3	23	17.4	
O=C1C=CC(=O)c2c1nc(CBr)[nH]c2=O	> 100	> 100	> 100		> 100	> 100		> 100	> 100					> 100						
COc1ccc2c(c1)[n+]([O-])c(-c1ccccc1Cl)c(N)[n+]2[O-]	> 100	> 100		> 100	> 100		> 100	> 100	32.6											
CCN(CC)c1ccc(C2N3CCCCC3[C@@H]3c4[nH]c5ccccc5c4CCN23)cc1 (some centres undefined)	> 100	28.2	44.1	> 100	> 100	36.6	55.5	> 100	93.2											
Cc1cc(N2CCOCC2)nc(NCc2cc(Nc3ccnc4cc(Cl)ccc34)ccc2F)n1	3.91	2.25	3.37		3.69	3.35	3.57	5.96	2.15	1.52	1.63				1.32	1.75	1.83	2.32	0.665	0.894
COc1cc(O)c(C(=O)/C=C/c2ccc(OC)c(OCc3ccccc3)c2)c(OC)c1	> 100		> 100	> 100	> 100	7.33	> 100	> 100	2.09											
CC(=O)[CH-]C(=O)c1ccccc1.CC(=O)[CH-]C(=O)c1ccccc1.CC(=O)[CH-]C(=O)c1ccccc1.[Ga+3]	57.6	45.6	48	51.9	34.5	30	28.7	37.1	32.3	22.7	29.1	29.8			17.1	16.4	11.8	12.1	17.7	24.7
CCCCCCCCCCCCCS(=O)(=O)NCC(N)=O	> 100	> 100	> 100	> 100	> 100	> 100	> 100		> 100											
CCOC(=O)C1C(=O)CC(=O)C2CCCCC21 (centres undefined)	> 100	> 100	> 100	> 100	> 100	> 100	> 100	> 100	> 100											
